One test has as its target T1, HDAC1 (Homo sapiens, UniProt Q13547).
T1 construct: purchased BPS Bioscience
Kind of test: In vitro HDAC1 enzymatic activity inhibition (Lys-Ac-AMC substrate). The format is biochemical. Here is the method:
Determining the inhibition capability to HDAC activity through the substrate method of fluorophore 4-amino-7-coumarin coupled Ac-peptide (Lys-Ac-AMC). HDAC1 protein is purchased from BPS Bioscience Company; the reaction buffer system is a modified tris(hydroxymethyl)aminomethane (TRIS) buffer (pH7.0). All small molecule compounds are prepared and dissolved by 100% DMSO (dimethyl sulfoxide). HDAC is prepared into the buffer as per certain concentration to be served as the enzyme solution; trypsin and the fluorophore 4-amino-7-coumarin coupled Ac-peptide substrate are prepared into the buffer as per certain concentration to be served as the substrate solution. Adding the compound into the reaction wells of the 384 well plate at the designed concentration, then adding 15 μL HDAC solution into the reaction wells (adding 15 μL blank buffer into the control well 0) for incubation under ambient temperature for 15 min; then adding 10 μL substrate solution to start reaction; during the reaction, the final concentration of HDAC1 protein is 6 nM, trypsin 0.05 μM and Ac-peptide 8 μM.
(§1) Calculating the value of IC50 as per the formula: Y=background data+(top data−background data)/(1+10^((Log IC50−X)*rate of curve))
Where, Y refers to the inhibition ratio (%) and X refers to the compound concentration. […]
Analyzing the result data with the software GraphPad Prism and calculating the value of IC50 as per the formula: Y=background data+(top data−background data)/(1+10^((Log IC50−X)*rate of curve)). Where, Y refers to the inhibition ratio (%) and X refers to the compound concentration.

A further test has as its target T2, PI3Kα (Homo sapiens, UniProt P42336).
T2 construct: purchased Invitrogen PV4788
Put plainly: PI3Kα activity inhibition (Kinase-Glo). In kind it is biochemical. Particulars: Table 1, graded; read-out: PI3Kα IC50. As for the experimental part: Detecting the inhibition capability of the compound to PI3Kα and PI3Kδ activities with Kinase-Glo (purchased from Promege Company; Catalog No.: V3771). […] The reaction system also comprises substrates as PIP2 (4, 5-diphosphoinositide, purchased from Life Technologies Company) and ATP (triphosadenine, purchased from Sigma Company). The reaction buffer system comprises 50 mM HEPES (4-hydroxyethylpiperazine ethane sulfonic acid), 3 mM MgCl2, 1 mM EGTA (ethylene glycol bis(2-amino ethylether)quadrol), 100 mM NaCl, 0.03% CHAPS (3-[3-(cholamidopropyl)dimethylamino]-1-propanesulfonic acid), 2 mM DTT (dithiothreitol). The pH value of the reaction buffer is 7.5. […] Mixing the system evenly for incubation under ambient temperature (for 1 h in PI3Kα test and for 2 h in PI3Kδ test). After incubation, adding 10 μL Kinase-Glo which has been preheated to ambient temperature into each reaction well to terminate the reaction; shaking it in dark place for 15 min after it is mixed evenly, then measuring the fluorescence intensity with a microplate reader and analyzing the result data with the software GraphPad Prism.
as §1
Where, Y refers to the inhibition ratio (%) and X refers to the compound concentration.
(Kinase-Glo measures the ATP left after a reaction by luminescence.)

Test [1] concerns MV4-11 cells (acute myeloid leukemia). Kind of test: Cell proliferation inhibition, MV4-11 (cck-8). In kind it is cell-based. Particulars: Homo sapiens. As for the experimental part: (§2) The tumor cell lines are purchased from American Type Culture Collection (ATCC) and cultivated to the status of logarithmic growth as per the cultural method recommended by ATCC. The cells in logarithmic phase are spread on a 96 well plate as per 2000-3000/well; as for anchorage-dependent cells, the compound should be added in the test wells at certain concentration for incubation for 96 h after cell adherence. Determining cell proliferation activities with method MTT for tumor cells representing solid tumor model and with method cck-8 for tumor cells representing hematologic tumor model, and analyzing the result data with the software GraphPad Prism.
(§3) Calculating the value of IC50 as per the formula: Y=background data+(top data−background data)/(1+10^((Log IC50−X)*rate of curve)). Where, Y refers to the inhibition ratio (%) and X refers to the compound concentration.

Test [2] relates to hct116 cells (colon cancer). Put plainly: Cell proliferation inhibition, hct116 (MTT). Particulars: Homo sapiens, HCT-116. The format is cell-based. As for the experimental part: as §2, §3
For test [3], the system named is A2780s cells (ovarian cancer). Put plainly: Cell proliferation inhibition, A2780s (MTT). The format is cell-based. The note with it: Homo sapiens. As for the experimental part:
as §2, §3

Setting [4] is: Table 1, graded, read-out: HDAC1 IC50.
Setting [5] is: 96 h incubation, read-out: Proliferation IC50, Acute myeloid leukemia MV4-11.
Setting [6] is: read-out: IC50 to proliferation of MV4-11 cells.
Where [7] appears, read: 96 h incubation, read-out: Proliferation IC50, Colon cancer hct116.
The mark [8] stands for this setting: read-out: IC50 to proliferation of hct116 cells.
The mark [9] stands for this setting: 96 h incubation, read-out: Proliferation IC50, Ovarian cancer A2780s.
Where [10] appears, read: read-out: IC50 to proliferation of A2780s cells.
Where [11] appears, read: read-out: inhibition value IC50 to the activity of HDAC1.

Where two headings read alike, the source gives them in different places.

We go through 14 compounds from US10227347B2, “Purinyl-N-hydroxyl pyrimidine formamide derivative, preparation methods and uses thereof” (Guizhou Bailing Group Pharmaceutical CO., LTD., priority 2015, dated 2019).

T1 sequence (Q13547 whole entry, species assumed): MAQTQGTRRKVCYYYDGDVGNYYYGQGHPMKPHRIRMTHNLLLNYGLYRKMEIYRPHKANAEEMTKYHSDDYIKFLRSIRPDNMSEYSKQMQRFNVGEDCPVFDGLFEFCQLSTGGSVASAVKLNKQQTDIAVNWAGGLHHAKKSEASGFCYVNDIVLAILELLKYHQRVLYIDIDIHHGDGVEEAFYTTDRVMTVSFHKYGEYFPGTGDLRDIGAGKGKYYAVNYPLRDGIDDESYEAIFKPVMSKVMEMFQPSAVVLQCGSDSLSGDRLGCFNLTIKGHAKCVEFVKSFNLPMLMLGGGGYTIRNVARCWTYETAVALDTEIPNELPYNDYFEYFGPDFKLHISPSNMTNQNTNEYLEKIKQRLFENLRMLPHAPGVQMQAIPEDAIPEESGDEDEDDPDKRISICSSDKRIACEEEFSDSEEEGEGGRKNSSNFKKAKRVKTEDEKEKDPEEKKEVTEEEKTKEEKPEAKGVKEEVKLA
T2 sequence (P42336 whole entry, species assumed): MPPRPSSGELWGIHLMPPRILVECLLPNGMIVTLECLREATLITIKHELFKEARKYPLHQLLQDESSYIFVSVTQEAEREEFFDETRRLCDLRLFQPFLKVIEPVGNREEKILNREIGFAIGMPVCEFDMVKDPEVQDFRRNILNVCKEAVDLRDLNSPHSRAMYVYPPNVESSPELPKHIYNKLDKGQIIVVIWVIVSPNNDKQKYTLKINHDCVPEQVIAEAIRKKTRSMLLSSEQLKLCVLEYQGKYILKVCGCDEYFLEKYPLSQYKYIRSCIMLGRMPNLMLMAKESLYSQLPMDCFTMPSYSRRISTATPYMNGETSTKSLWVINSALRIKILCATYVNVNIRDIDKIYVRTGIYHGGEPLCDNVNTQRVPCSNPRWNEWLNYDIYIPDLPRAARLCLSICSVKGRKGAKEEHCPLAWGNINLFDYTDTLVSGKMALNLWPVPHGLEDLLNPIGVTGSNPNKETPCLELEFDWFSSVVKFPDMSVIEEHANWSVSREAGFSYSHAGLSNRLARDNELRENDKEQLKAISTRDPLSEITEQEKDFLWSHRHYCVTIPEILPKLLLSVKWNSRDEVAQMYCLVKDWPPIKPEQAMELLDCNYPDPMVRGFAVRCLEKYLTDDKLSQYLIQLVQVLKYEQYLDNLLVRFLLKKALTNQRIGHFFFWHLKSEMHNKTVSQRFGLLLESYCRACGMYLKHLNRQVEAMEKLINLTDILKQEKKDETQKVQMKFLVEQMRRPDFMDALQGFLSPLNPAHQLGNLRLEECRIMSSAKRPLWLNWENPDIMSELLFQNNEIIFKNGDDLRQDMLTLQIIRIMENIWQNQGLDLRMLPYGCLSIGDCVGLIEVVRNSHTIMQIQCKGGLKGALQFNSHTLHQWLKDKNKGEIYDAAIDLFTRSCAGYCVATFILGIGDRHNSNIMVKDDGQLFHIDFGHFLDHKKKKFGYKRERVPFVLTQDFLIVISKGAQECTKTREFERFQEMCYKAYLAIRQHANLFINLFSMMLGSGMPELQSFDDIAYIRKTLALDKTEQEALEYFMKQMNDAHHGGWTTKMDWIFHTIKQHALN
T2 sequence (P27986 whole entry partner, species assumed): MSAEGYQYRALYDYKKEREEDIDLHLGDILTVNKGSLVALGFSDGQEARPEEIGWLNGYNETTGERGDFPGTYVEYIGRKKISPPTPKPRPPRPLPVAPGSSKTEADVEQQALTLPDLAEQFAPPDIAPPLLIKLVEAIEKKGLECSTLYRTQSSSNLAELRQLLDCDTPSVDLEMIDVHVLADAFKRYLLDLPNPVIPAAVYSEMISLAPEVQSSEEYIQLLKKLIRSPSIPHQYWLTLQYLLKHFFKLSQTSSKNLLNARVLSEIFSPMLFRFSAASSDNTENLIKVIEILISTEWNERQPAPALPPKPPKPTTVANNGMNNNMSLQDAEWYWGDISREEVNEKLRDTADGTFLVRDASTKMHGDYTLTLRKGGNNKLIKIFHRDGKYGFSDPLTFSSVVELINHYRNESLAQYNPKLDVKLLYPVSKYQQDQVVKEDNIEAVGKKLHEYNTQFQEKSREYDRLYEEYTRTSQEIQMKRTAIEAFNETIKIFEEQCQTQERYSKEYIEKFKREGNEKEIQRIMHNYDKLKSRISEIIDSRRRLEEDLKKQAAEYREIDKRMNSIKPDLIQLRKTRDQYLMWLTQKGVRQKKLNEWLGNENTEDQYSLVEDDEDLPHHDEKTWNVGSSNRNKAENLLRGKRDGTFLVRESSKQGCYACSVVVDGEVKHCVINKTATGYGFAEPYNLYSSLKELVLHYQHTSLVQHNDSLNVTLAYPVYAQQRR

In the case of `CCCCc1ccc(-c2nc(N3CCOCC3)c3nc(CN(C)c4ncc(C(=O)NO)cn4)n(C)c3n2)s1` [CLJ-21, 2-(((2-(5-n-butyl-2-thienyl)-9-methyl-6-morpholine-9H-purine-8-yl))methyl(methyl)amino)-N-hydroxyl pyrimidine-5-formamide], the IC50 at HDAC1 (setting [4]) is less than 100 nM; at PI3Kα, more than 10000 nM; in test [1] (setting [5]), 0.1 to 10 nM; in test [1] (setting [6]), 0.1 to 10 nM; in test [2] (setting [7]), 0.1 to 10 nM; in test [2] (setting [8]) it was 0.1 to 10 nM. In addition, the IC50 in test [3] (setting [9]) and in test [3] (setting [10]) was 0.1 to 10 nM in each case.

In the case of `CN(Cc1nc2c(N3CCOCC3)nc(-c3ccsc3)nc2n1C)c1ncc(C(=O)NO)cn1` [CLJ-22, 2-(((2-(3-thienyl)-9-methyl-6-morpholine-9H-purine-8-yl))methyl(methyl)amino)-N-hydroxyl pyrimidine-5-formamide], the IC50 on HDAC1 (setting [4]) was less than 1 nM; at HDAC1 (setting [11]), less than 1 nM; at PI3Kα, more than 10000 nM; in test [1] (setting [5]) it was 0.1 to 10 nM; in test [1] (setting [6]), 0.1 to 10 nM; in test [2] (setting [7]), 0.1 to 10 nM. Besides, the IC50 in test [2] (setting [8]), in test [3] (setting [9]) and in test [3] (setting [10]) was 0.1 to 10 nM each time.

In the case of `Cc1cscc1-c1nc(N2CCOCC2)c2nc(CN(C)c3ncc(C(=O)NO)cn3)n(C)c2n1` [CLJ-23], the IC50 on HDAC1 (setting [4]) is less than 100 nM; on PI3Kα, more than 10000 nM; in test [1] (setting [5]) it was 0.1 to 10 nM; in test [1] (setting [6]), 0.1 to 10 nM; in test [2] (setting [7]), 0.1 to 10 nM; in test [2] (setting [8]), 0.1 to 10 nM. Besides, the IC50 in test [3] (setting [9]) and in test [3] (setting [10]) was 0.1 to 10 nM in each case.

Regarding `CN(Cc1nc2c(N3CCOCC3)nc(-c3ccc[nH]3)nc2n1C)c1ncc(C(=O)NO)cn1` [CLJ-24, 2-(((2-(1H-2-pyrrolyl)-9-methyl-6-morpholine-9H-purine-8-yl))methyl(methyl)amino)-N-hydroxyl pyrimidine-5-formamide], the IC50 on HDAC1 (setting [4]) is less than 1 nM; at HDAC1 (setting [11]), less than 1 nM; at PI3Kα, 1000 to 10000 nM; in test [1] (setting [5]), 0.1 to 10 nM; in test [1] (setting [6]), 0.1 to 10 nM; in test [2] (setting [7]), 0.1 to 10 nM. The IC50 in test [2] (setting [8]), in test [3] (setting [9]) and in test [3] (setting [10]) was 0.1 to 10 nM each time.

Consider `CN(C)CCn1cc(-c2nc(N3CCOCC3)c3nc(CN(C)c4ncc(C(=O)NO)cn4)n(C)c3n2)cn1` [CLJ-25], for which the IC50 at HDAC1 (setting [4]) is less than 100 nM; at PI3Kα, 1000 to 10000 nM; in test [1] (setting [5]) it was 0.1 to 10 nM; in test [1] (setting [6]) it was 0.1 to 10 nM; in test [2] (setting [7]), 0.1 to 10 nM; in test [2] (setting [8]), 0.1 to 10 nM. Besides, the IC50 in test [3] (setting [9]) and in test [3] (setting [10]) was 0.1 to 10 nM throughout.

As to `CN(Cc1nc2c(N3CCOCC3)nc(-c3cccc(O)c3)nc2n1C)c1ncc(C(=O)NO)cn1` [CLJ-27, 2-(((2-(3-hydroxyphenyl)-9-methyl-6-morpholine-9H-purine-8-yl))methyl(methyl)amino)-N-hydroxyl pyrimidine-5-formamide], the IC50 at HDAC1 (setting [4]) was less than 1 nM; at HDAC1 (setting [11]), less than 1 nM; at PI3Kα, more than 10000 nM; in test [1] (setting [5]), 0.1 to 10 nM; in test [2] (setting [7]), 10 to 100 nM; in test [3] (setting [9]), 10 to 100 nM.

With `CCn1c(CN(C)c2ncc(C(=O)NO)cn2)nc2c(N3CCOCC3)nc(-c3ccc(OC)cc3)nc21` [CLJ-30, 2-((9-ethyl-2(4-methoxyphenyl)-6-morpholino-9H-purine-8-yl)methyl)(methyl)amino-N-hydroxyl pyrimidine-5-formamide], the IC50 at HDAC1 (setting [4]) is less than 100 nM; on PI3Kα, more than 10000 nM; in test [1] (setting [5]), 0.1 to 10 nM; in test [2] (setting [7]), 10 to 100 nM; in test [3] (setting [9]), 10 to 100 nM.

As for `COc1ccc(-c2nc(N3CCOCC3)c3nc(CN(C)c4ncc(C(=O)NO)cn4)n(C(C)C)c3n2)cc1` [CLJ-31], the IC50 is 100 to 1000 nM at HDAC1 (setting [4]); more than 10000 nM on PI3Kα; more than 1000 nM in test [1] (setting [5]); more than 1000 nM in test [2] (setting [7]); more than 1000 nM in test [3] (setting [9]).

As to `COc1ccc(-c2nc(N3CCOCC3)c3nc(CN(C)c4ncc(C(=O)NO)cn4)n(C4CCCC4)c3n2)cc1` [CLJ-32, 2-(((9-cyclopentyl-2(4-methoxyphenyl)-6-morpholine-9H-purine-8-yl)methyl)(methyl)amino)-N-hydroxyl pyrimidine-5-formamide], the IC50 on HDAC1 (setting [4]) is 100 to 1000 nM; on PI3Kα, more than 10000 nM; in test [1] (setting [5]), more than 1000 nM; in test [2] (setting [7]) it was more than 1000 nM; in test [3] (setting [9]) it was more than 1000 nM.

In the case of `COc1cc(-c2nc(N3CCOCC3)c3nc(CN(C)c4ncc(C(=O)NO)cn4)n(C)c3n2)cc(OC)c1OC` [CLJ-35, 2-(((2-(3,4,5-trimetoxyphenyl)-9-methyl-6-morpholine-9H-purine-8-yl))methyl(methyl)amino)-N-hydroxyl pyrimidine-5-formamide], the IC50 at HDAC1 (setting [4]) was less than 100 nM; at PI3Kα, more than 10000 nM; in test [1] (setting [5]), 0.1 to 10 nM; in test [2] (setting [7]), 10 to 100 nM; in test [3] (setting [9]) it was 10 to 100 nM.

With `CN(Cc1nc2c(N3CCOCC3)nc(-c3ccc4c(c3)OCO4)nc2n1C)c1ncc(C(=O)NO)cn1` [CLJ-36, 2-(((2-(benzo[d][1,3]dioxole-5-yl)-9-methyl-6-morpholine-9H-purine-8-yl))methyl(methyl)amino)-N-hydroxyl pyrimidine-5-formamide], the IC50 is less than 1 nM on HDAC1 (setting [4]); less than 1 nM at HDAC1 (setting [11]); more than 10000 nM on PI3Kα; 0.1 to 10 nM in test [1] (setting [5]); 0.1 to 10 nM in test [1] (setting [6]); 0.1 to 10 nM in test [2] (setting [7]). The IC50 in test [2] (setting [8]), in test [3] (setting [9]) and in test [3] (setting [10]) was 0.1 to 10 nM throughout.

In the case of `COc1ccc(C(F)(F)F)cc1-c1nc(N2CCOCC2)c2nc(CN(C)c3ncc(C(=O)NO)cn3)n(C)c2n1` [CLJ-38, 2-(((2-(2-methoxy-5-trifluoromethylphenyl)-9-methyl-6-morpholine-9H-purine-8-yl))methyl(methyl)amino)-N-hydroxyl pyrimidine-5-formamide], the IC50 on HDAC1 (setting [4]) is less than 100 nM; on PI3Kα, more than 10000 nM; in test [1] (setting [5]) it was 0.1 to 10 nM; in test [1] (setting [6]), less than 10 nM; in test [2] (setting [7]), 100 to 1000 nM; in test [2] (setting [8]), more than 100 nM. In addition, the IC50 in test [3] (setting [9]) was in the range of 10 to 100 nM.

Regarding `CCNc1ccc(-c2nc(N3CCOCC3)c3nc(CN(C)c4ncc(C(=O)NO)cn4)n(C)c3n2)cc1` [CLJ-48], the IC50 at HDAC1 (setting [4]) was less than 100 nM; on PI3Kα, more than 10000 nM; in test [1] (setting [5]) it was 0.1 to 10 nM; in test [1] (setting [6]) it was 0.1 to 10 nM; in test [2] (setting [7]), 0.1 to 10 nM; in test [2] (setting [8]), 0.1 to 10 nM. In addition, the IC50 in test [3] (setting [9]) and in test [3] (setting [10]) was 0.1 to 10 nM throughout.

With `CC(C)=CCN(CC=C(C)C)c1ccc(-c2nc(N3CCOCC3)c3nc(CN(C)c4ncc(C(=O)NO)cn4)n(C)c3n2)cc1` [CLJ-49], the IC50 is less than 100 nM on HDAC1 (setting [4]); more than 10000 nM at PI3Kα; 10 to 100 nM in test [1] (setting [5]); 100 to 1000 nM in test [2] (setting [7]); 10 to 100 nM in test [3] (setting [9]).
